Source: patent US4048334A, “Active derivatives of methylamino in therapeutic compositions and methods of use” (priority 1974, dated 1977)

System: neuroleptic-induced catatonia
Test: Inhibition of neuroleptic-induced catatonia (prochlorperazine)
Assay type: in vivo, rat (male, OFA strain)
Method: 2. Inhibition of neuroleptic-induced catatonia
The blocking of dopaminergic receptors by neuroleptics in the extra-pyramidal system induces catatonia in the rat. Catatonia is differentiated from sedative properties by means of the test used hereabove for reserpine-induced catatonia. The same system of scoring was also employed in the present case.
An oral dose of the compound to be studied in aqueous solution was administered to batches of 10 male rats of the OFA strain weighing about 150 to 200 g. […] Three hours after the injection of this latter compound, catatonia was measured. An identical trial was also carried out with control animals which received prochlorperazine but none of the compounds under study.
The scoring system, used was that given hereabove in Table I.

CCCC(N)(CCC)CCC [Compound 1]
Inhibition of the neuroleptic-induced catatonia (1 mg/kg): 70% | Inhibition of the neuroleptic-induced catatonia (5 mg/kg oral, 30 min before prochlorperazine 12.5 mg/kg i.p.): 4 (100% inhibition of catatonia in comparison with the controls (namely a score of 0 per studied batch)) | activity compared with amantadine, neuroleptic-induced catatonia (versus amantadine): twenty times more active than amantadine
